Experimental data reported in patent publication US11351168B1 (Celgene CAR LLC, priority 2008, dated 2022).
pIC50: −log10 of the molar value.

Experiments:
BTK = BTK (Homo sapiens (Human), UniProt Q06187); experiment: Mass spectrometry for BTK (intact protein); format: binding; details: 1 hr, 10× fold excess of compound
Method: Mass Spectrometry for BTK
Intact BTK was incubated for 1 hr at a 10× fold excess of I-7 to protein. Aliquots (2 μl) of the samples were diluted with 10 μl of 0.1% TFA prior to micro C4 ZipTipping directly onto the MALDI target using Sinapinic acid as the desorption matrix (10 mg/ml in 0.1% TFA:Acetonitrile 20:80).

TEC kinase = TEC kinase (Homo sapiens (Human), UniProt P42680); experiment: Mass spectrometry for TEC kinase (tryptic digest); format: binding; details: 3 hrs at 10× excess, tryptic digestion
Method: Mass Spectrometry for TEC Kinase (Compound I-2)
(§1) TEC kinase (45 pmols; Invitrogen) was incubated with (I-2) (450 pmols) for 3 hrs at 10× excess prior to tryptic digestion. Iodoacetamide was used as the alkylating agent after compound incubation. […] For tryptic digests a 5 ul aliquot (7.5 pmols) was diluted with 15 ul of 0.1% TFA prior to micro C18 Zip Tipping directly onto the MALDI target using alpha cyano-4-hydroxy cinnamic acid as the matrix (5 mg/ml in 0.1% TFA:Acetonitrile 50:50).
(§2) For tryptic digests the instrument was set in Reflectron mode with a pulsed extraction setting of 2200. Calibration was done using the Laser Biolabs Pep Mix standard ([…], 1296.69, 1672.92, 2093.09, 2465.20). For CID/PSD analysis the peptide was selected using cursors to set ion gate timing and fragmentation occurred at a laser power about 20% higher and He was used as the collision gas for CID. Calibration for fragments was done using the P14R fragmentation calibration for the Curved field Reflectron.
as §1, with “(I-4)” for “(I-2)”
as §2, with “1800.” for “2200.”
TEC kinase (45 pmols; Invitrogen) was incubated with […] (450 pmols) for 3 hrs at 10× excess prior to tryptic digestion. […]

[1] = test system: BTK kinase activity (PLCγ2 phosphorylation) in Ramos cells; experiment: Washout experiment with Ramos cells; format: cell-based, human; details: 100 nM compound for 1 hour, then washout
Method: Washout Experiment with Ramos Cells
Ramos cells were serum starved for one hour in RPMI media+1% glutamine at 37° C. After starvation, Ramos cells were treated with 100 nM compound diluted in serum free RPMI media for 1 hour. After compound treatment, the media was removed and cells were washed with compound-free media. Subsequently, Ramos cells were washed every 2 hours and resuspended in fresh compound-free media. Cells were collected at specified timepoints, treated with 1 ug anti-human IgM (Southern Biotech cat #2022-01) for 10 minutes on ice to induce BCR signaling and then washed in PBS. Ramos cells were then lysed in Cell Extraction Buffer (Invitrogen FNN0011) supplemented with Roche complete protease inhibitor tablets (Roche 11697498001) and phosphatase inhibitors (Roche 04 906 837 001) and 18 ug total protein lysate was loaded in each lane. Inhibition of BTK kinase activity was assayed by measuring its substrate (PLCγ2) phosphorylation by western blot with phospho-specific antibodies from Cell Signaling Technologies cat #3871. The results of this experiment with compounds I-2, I-4 and I-7 are depicted in FIGS. 1, 2 and 3.

[2] = test system: BTK signaling in Ramos cells; experiment: BTK Ramos cellular assay (phosphorylation of BTK substrate PLCγ2); format: cell-based, human; details: Homo sapiens, 1 hour compound, anti-IgM stimulation, read-out: BTK Inhibition (Ramos cellular)
Procedure, shortened: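 Serum-starved Ramos Burkitt lymphoma cells treated 1 h with compound at 1, 0.1, 0.01 or 0.001 μM final. B-cell receptor stimulated with 1 μg anti-human IgM F(ab′)2, 10 min on ice. Lysates (16 μg protein) immunoblotted for phospho-PLCγ2.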

BTK in Ramos cells = BTK in Ramos cells (Homo sapiens (Human), UniProt Q06187); experiment: BTK occupancy from in vitro samples by ELISA (Ramos cells); format: cell-based; details: ELISA with probe I-215
Description: Measuring BTK Occupancy from In Vitro Samples by ELISA
In order to determine the amount of free BTK in cell or tissue lysates, an ELISA protocol was employed that utilizes a biotinylated probe compound that binds only to free, unoccupied BTK. The conjugated biotin is captured on a streptavidin-coated ELISA plate and detected with a mouse anti-BTK antibody (Becton Dickinson, Franklin Lakes, N.J., USA) and a secondary goat anti-mouse HRP antibody (Zymed, South San Francisco, Calif., USA).
All samples were prepared with equal concentrations of Biorad lysis buffer (Hercules, Calif., USA), 0.5% bovine serum albumin in PBS with 0.05% Tween-20 to give a final concentration of 1 μM I-215. Samples were incubated in a mixing plate for 1 hr at room temperature while shaking to allow probe compound I-215 to bind to free BTK. After incubation with I-215, samples were added to a washed, streptavidin-coated ELISA plate (Pierce, Rockford, Ill., USA) and incubated for 1 hr at room temperature while shaking. The plate was then washed with PBS containing 0.05% Tween-20 using an automatic plate washer. Anti-BTK antibody was prepared at 1:1000 dilution in 0.5% BSA in PBS (0.05% Tween-20) and added to the ELISA plate. The plate was incubated for 1 hr at room temperature while shaking. The plate was washed as described above and the secondary HRP antibody was prepared at 1:5000 dilution in 0.5% BSA in PBS (0.05% Tween-20). The plate was incubated and washed as described above. TMB was added to the plate, and OD650 was monitored until reaching 1 OD unit. The reaction was then stopped with addition of H2SO4. The plate was analyzed using Gen 5 software, and a 4 Parameter Logistic curve was employed to quantitate samples. Recombinant BTK (Invitrogen, Carlsbad, Calif., USA) was used for the standard curve.
A concentration designated as “A” is greater than 1 nM; a concentration designated as “B” is greater than 10 nM; and a concentration designated as “C” is greater than 50 nM.

BTK, sequence (Q06187 whole entry): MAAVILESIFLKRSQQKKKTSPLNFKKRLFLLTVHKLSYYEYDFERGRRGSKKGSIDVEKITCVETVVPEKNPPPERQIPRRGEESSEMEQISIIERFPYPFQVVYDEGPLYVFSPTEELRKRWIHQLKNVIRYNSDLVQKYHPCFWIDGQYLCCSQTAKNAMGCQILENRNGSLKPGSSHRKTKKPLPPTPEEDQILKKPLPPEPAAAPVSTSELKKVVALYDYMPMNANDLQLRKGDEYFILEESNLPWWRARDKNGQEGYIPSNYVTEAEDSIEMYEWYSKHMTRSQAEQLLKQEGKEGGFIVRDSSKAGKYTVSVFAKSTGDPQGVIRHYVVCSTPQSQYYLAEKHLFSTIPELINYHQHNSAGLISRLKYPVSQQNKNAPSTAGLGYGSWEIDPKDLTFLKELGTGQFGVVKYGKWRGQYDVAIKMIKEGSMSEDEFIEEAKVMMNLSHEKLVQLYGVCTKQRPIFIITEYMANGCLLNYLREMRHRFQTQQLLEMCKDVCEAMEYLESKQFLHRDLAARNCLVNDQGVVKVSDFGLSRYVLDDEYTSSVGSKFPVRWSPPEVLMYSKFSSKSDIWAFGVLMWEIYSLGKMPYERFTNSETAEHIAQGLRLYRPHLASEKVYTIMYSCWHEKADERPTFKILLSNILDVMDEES
BTK in Ramos cells, sequence (Q06187 whole entry): as above
TEC kinase, sequence (P42680 whole entry): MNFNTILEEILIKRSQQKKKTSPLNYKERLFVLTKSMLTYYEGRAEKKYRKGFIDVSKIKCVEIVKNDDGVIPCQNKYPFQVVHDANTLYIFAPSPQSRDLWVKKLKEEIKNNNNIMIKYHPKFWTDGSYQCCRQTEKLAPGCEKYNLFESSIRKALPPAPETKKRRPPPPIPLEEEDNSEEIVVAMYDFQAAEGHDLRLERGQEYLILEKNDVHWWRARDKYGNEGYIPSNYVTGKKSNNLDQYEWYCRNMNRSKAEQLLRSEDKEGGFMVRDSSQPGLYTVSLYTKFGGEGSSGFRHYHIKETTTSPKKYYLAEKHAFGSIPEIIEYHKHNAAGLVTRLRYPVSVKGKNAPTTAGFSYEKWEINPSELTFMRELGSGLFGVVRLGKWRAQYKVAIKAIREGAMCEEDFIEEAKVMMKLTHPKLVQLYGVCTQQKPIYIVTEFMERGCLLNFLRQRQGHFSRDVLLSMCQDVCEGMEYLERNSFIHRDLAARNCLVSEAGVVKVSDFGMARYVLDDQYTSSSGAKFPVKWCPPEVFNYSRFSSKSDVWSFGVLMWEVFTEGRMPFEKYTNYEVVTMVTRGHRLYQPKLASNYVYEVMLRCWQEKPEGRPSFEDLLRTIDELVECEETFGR

| Compound | modification of BTK by mass spectrometry (BTK) | pIC50 [2] | BTK Inhibition Type [1] | other results |
| --- | --- | --- | --- | --- |
| 2-((4-(5-fluoro-2-(3-trifluoromethoxyphenylamino)pyrimidin-4-ylamino)phenyl)(hydroxy)methyl)acrylonitrile [Compound I-163] | completely modify |  |  |  |
| C=CC(=O)Nc1cccc(Nc2ncc(C)c(Nc3cccc(C)c3)n2)c1 [Compound I-2, N-(3-(5-methyl-4-(m-tolylamino)pyrimidin-2-ylamino)phenyl) acrylamide] |  |  | irreversible | covalent modification of TEC kinase peptide GCLLNFLR by mass spectrometry (TEC kinase): reaction was complete |
| C=C(C#N)C(O)c1cccc(Nc2nc(Nc3ccc(OCCOC)cc3)ncc2F)c1 (stereo not drawn) [Compound I-71, 2-((3-(5-fluoro-2-(4-(2-methoxyethoxy)phenylamino)pyrimidin-4-ylamino)phenyl)(hydroxy)methyl)acrylonitrile] | completely modify |  |  |  |
| C=C(C#N)C(O)c1ccc(Nc2nc(Nc3ccccc3)ncc2F)cc1 (stereo not drawn) [Compound I-161, 2-((4-(5-fluoro-2-(phenylamino)pyrimidin-4-ylamino)phenyl)(hydroxy)methyl)acrylonitrile] | completely modify |  |  |  |
| C=CC(=O)Nc1cccc(Nc2nc(Nc3ccc(OCCOC)cc3)ncc2F)c1 [Compound I-182, N-(3-(5-fluoro-2-(4-(2-methoxyethoxy)phenylamino)pyrimidin-4-ylamino)phenyl)acrylamide] | completely modify |  |  |  |
| C=CC(=O)N1CCC[C@@H](Nc2nc(Nc3cccc(OC)c3)ncc2F)C1 [Compound I-195, (R)-1-(3-(5-fluoro-2-(3-methoxyphenylamino)pyrimidin-4-ylamino)piperidin-1-yl)prop-2-en-1-one] | completely modify | 7.00 to 8.00 |  |  |
| CC(C)=CC(=O)c1cccc(Nc2nc(Nc3cccc(OCCN(C)C)c3)ncc2F)c1 [Compound I-207] | completely modify | 6.00 to 7.00 |  |  |
| C=CC(=O)N(C)Cc1ccc(Nc2nc(Nc3ccccc3)ncc2C)cc1 [Compound I-219, N-methyl-N-(4-(5-methyl-2-(phenylamino)pyrimidin-4-ylamino)benzyl)acrylamide] | completely modify | 7.00 to 8.00 |  |  |
| C=CC(=O)Nc1cccc(Nc2nc(Nc3cccc(OC(F)(F)F)c3)ncc2F)c1 [Compound I-244, N-(3-(5-fluoro-2-(3-(trifluoromethoxy)phenylamino)pyrimidin-4-ylamino)phenyl)acrylamide] | completely modify | 7.00 to 8.00 |  |  |

Continued, in another order:

| modification of BTK by mass spectrometry (BTK) | pIC50 [2] | Compound | BTK Inhibition Type [1] | other results |
| --- | --- | --- | --- | --- |
|  | > 8.00 | C#CCOc1cccc(Nc2ncc(C)c(Nc3cccc(NC(=O)C=C)c3)n2)c1 [Compound I-35, N-(3-(5-methyl-2-(3-(prop-2-ynyloxy)phenylamino)pyrimidin-4-ylamino)phenyl) acrylamide] | irreversible |  |
|  | 7.00 to 8.00 | Cc1cnc(Nc2ccccc2)nc1Nc1cccc(NC(=O)/C=C/CN(C)C)c1 [Compound I-38, (E)-4-(dimethylamino)-N-(3-(5-methyl-2-(phenylamino)pyrimidin-4-ylamino)phenyl)but-2-enamide] | reversible |  |
| completely modify | > 8.00 | C=CC(=O)Nc1cccc(Nc2nc(Nc3ccc(OCCOC)c(F)c3)ncc2F)c1 [Compound I-96, N-(3-(2-(3-fluoro-4-(2-methoxyethoxy)phenylamino)-5-fluoropyrimidin-4-ylamino)phenyl)acrylamide] |  | >50% occupancy (concentration) (BTK in Ramos cells): A (greater than 1 nM); >90% occupancy (concentration) (BTK in Ramos cells): B (greater than 10 nM) |
| completely modify | 7.00 to 8.00 | C=CC(=O)N1CCOc2ccc(Nc3ncc(F)c(Nc4cccc(Cl)c4)n3)cc21 [Compound I-149, 1-(6-(4-(3-chlorophenylamino)-5-fluoropyrimidin-2-ylamino)-2H-benzo[b][1,4]oxazin-4(3H)-yl)prop-2-en-1-one] |  |  |
|  | > 8.00 | C=CC(=O)Nc1cccc(Oc2nc(Nc3ccccc3)ncc2F)c1 [Compound I-228, N-(3-(5-fluoro-2-(phenylamino)pyrimidin-4-yloxy)phenyl)acrylamide] | irreversible |  |
|  | > 8.00 | C=CC(=O)Nc1cccc(Nc2nc(Nc3ccccc3)ncc2C(N)=O)c1 [Compound I-230, 4-(3-acrylamidophenylamino)-2-(phenylamino)pyrimidine-5-carboxamide] | irreversible |  |
|  | > 8.00 | C=CC(=O)Nc1cccc(Nc2nc(Nc3cccc(OC)c3)ncc2C(F)(F)F)c1 [Compound I-242, N-(3-(5-trifluoromethyl-2-(3-methoxyphenylamino)pyrimidin-4-ylamino)phenyl)acrylamide] | irreversible |  |
|  | > 8.00 | C=CC(=O)Nc1cccc(Nc2nc(Nc3ccc(OC)nc3)ncc2F)c1 [Compound I-243, N-(3-(5-fluoro-2-(6-methoxypyridin-3-ylamino)pyrimidin-4-ylamino)phenyl)acrylamide] | irreversible |  |
|  | > 8.00 | C=CC(=O)Nc1cccc(Nc2nc(Nc3ccc(F)cc3)ncc2F)c1 [Compound I-247, N-(3-(5-fluoro-2-(4-fluorophenylamino)pyrimidin-4-ylamino)phenyl)acrylamide] | irreversible |  |
|  | > 8.00 | C=CC(=O)Nc1cccc(Oc2nc(Nc3ccccc3)ncc2C)c1 [Compound I-248, N-(3-(5-methyl-2-(phenylamino)pyrimidin-4-yloxy)phenyl)acrylamide] | irreversible |  |
